What was measured:
[1] = test system: amphetamine-induced hyperlocomotion; experiment: Reversal of amphetamine-induced hyperlocomotion; assay type: in vivo, male Sprague-Dawley rats; conditions: 10 mg/kg, vehicle 20% HP-beta-CD; amphetamine 1 mg/kg sc; rat
Experimental: Locomotor activity was assessed as mean distance traveled (cm) in standard 16×16 photocell testing chambers measuring 43.2 cm (Length)×43.2 cm (Width)×30.5 cm (Height) (Med Associates, St. Albans, Vt.). Animals were habituated to individual activity chambers for at least 30 min prior to drug administration. Following administration of drug or vehicle, activity was recorded for a […] time period. Data was expressed as the mean (±SEM) distance traveled recorded in 5 min intervals over the test period. The data were analyzed using repeated measures analysis of variance (ANOVA) followed by post-hoc testing using Dunnett's test, when appropriate. A difference was considered significant when p≦0.05. Amphetamine sulfate was obtained from Sigma (Cat#A5880-1G; St. Louis, Mo.) and 10 mg was dissolved in 10 ml of water. Test compound, 2-((3-fluorobenzyl)oxy)-7,8-dihydro-1,6-naphthyridin-5(6H)-one, was formulated in a volume of 10 ml with an amount of drug appropriate to the dosage indicated. […] At 60 min, all rats were injected subcutaneously with 1 mg/kg amphetamine or vehicle and then monitored for an additional 60 min. Animals are monitored for a total of 120 minutes. Data are expressed as changes in ambulation defined as total number of beam breaks per 5 min periods. The data for the dose-response studies were analyzed by a between-group analysis of variance. […]

[2] = target: human mGluR5a receptor (Homo sapiens, UniProt P41594); experiment: Cell-based functional assay: Ca2+ mobilization (FDSS), potentiation of glutamate EC20 response; conditions: for EC50: HEK cells (H10H or H12H) transfected with human mGluR5, in presence of EC20 glutamate, >10 uM estimated where no plateau but >20% increase; for Emax: maximum average response at a single concentration, as percent of maximal glutamate response
Experimental: Table 1 below lists specific compounds as well as experimentally determined mGluR5 activity determined in a cell-based assay. The mGluR5 activity was determined using the metabotropic glutamate receptor activity assays in human embryonic kidney cells as described herein, wherein the human embryonic kidney cells were transfected with human mGluR5. The compounds in Table 1 were synthesized with methods identical or analogous to those shown herein. The column labeled “Rxn” and the data thereunder indicated in Table 1 refers to the Reaction Scheme number described above. The requisite starting materials were commercially available, described in the literature, or readily synthesized by one skilled in the art of organic synthesis.
Human mGluR5a cDNA in pCMV6-XL6 mammalian expression plasmid was purchased from OriGene Technologies, Inc. (catalogue number SC326357) and subcloned into pcDNA3.1(−). Human embryonic kidney (HEK)293A cells were then transfected with human mGluR5a pcDNA3.1(−) using LipofectAmine2000 (Invitrogen) and monoclones were selected and tested for functional response using a Ca^2+ mobilization assay. Monoclones were named for the species (“H” for human) plus the location on the plate (e.g. “10H”).
HEK cells transfected with the human mGluR5a receptor (H10H or H12H cell line) were plated at 15,000 cells/well in clear-bottomed poly-D-lysine-coated assay plates (BD Falcon) in glutamate-glutamine-free growth medium and incubated overnight at 37° C. and 5% CO2. Cell-lines used were either the H10H or H12H cell-lines expressing the human mGluR5 receptor. The following day, the growth medium was removed and the cells were washed with assay buffer containing 1× Hank's balanced salt solution (Invitrogen, Carlsbad, Calif.), 20 mM HEPES, 2.5 mM probenecid, pH 7.4 and left with 20 μL of this reagent. Following this step, the cells were loaded with calcium indicator dye, fluo-4 AM, to a final concentration of 2 μM and incubated for 40-45 min at 37° C. The dye solution was removed and replaced with assay buffer. Cell plates were held for 10-15 min at room temperature and were then loaded into the Functional Drug Screening System 6000 (FDSS 6000, Hamamatsu, Japan).
After establishment of a fluorescence baseline for about 3 seconds, the compounds of the present invention were added to the cells, and the response in cells was measured. 2.3 minutes later an EC20 concentration of the mGluR5 receptor agonist glutamate was added to the cells, and the response of the cells was measured for about 1.7 minutes. All test compounds were dissolved and diluted to a concentration of 10 mM in 100% DMSO and then serially diluted into assay buffer for a 2× stock solution in 0.6% DMSO; stock compounds were then added to the assay for a final DMSO concentration of 0.3% after the first addition to the assay well. Calcium fluorescence measures were recorded as fold over basal fluorescence; raw data was then normalized to the maximal response to glutamate. Potentiation of the agonist response of the mGluR5 receptor in the present invention was observed as an increase in response to submaximal concentrations of glutamate in the presence of compound compared to the response to glutamate in the absence of compound.
The concentration-response curves of compounds of the present invention, obtained in the presence of EC20 of mGluR5 receptor agonist glutamate to determine positive allosteric modulation, were generated using Microsoft Excel with IDBS XLfit add-ins. The raw data file containing all time points was used as the data source in the analysis template. This was saved by the FDSS as a tab-delimited text file. Data were normalized using a static ratio function (F/F0) for each measurement of the total 350 values per well divided by each well's initial value. Data was then reduced as to peak amplitudes (Max—Initial Min) using a time range that starts approximately 1 second after the glutamate EC20 addition and continues for approximately 40 seconds. […]

human mGluR5a receptor, sequence (P41594 21-1180 isoform P41594-2 limits assumed): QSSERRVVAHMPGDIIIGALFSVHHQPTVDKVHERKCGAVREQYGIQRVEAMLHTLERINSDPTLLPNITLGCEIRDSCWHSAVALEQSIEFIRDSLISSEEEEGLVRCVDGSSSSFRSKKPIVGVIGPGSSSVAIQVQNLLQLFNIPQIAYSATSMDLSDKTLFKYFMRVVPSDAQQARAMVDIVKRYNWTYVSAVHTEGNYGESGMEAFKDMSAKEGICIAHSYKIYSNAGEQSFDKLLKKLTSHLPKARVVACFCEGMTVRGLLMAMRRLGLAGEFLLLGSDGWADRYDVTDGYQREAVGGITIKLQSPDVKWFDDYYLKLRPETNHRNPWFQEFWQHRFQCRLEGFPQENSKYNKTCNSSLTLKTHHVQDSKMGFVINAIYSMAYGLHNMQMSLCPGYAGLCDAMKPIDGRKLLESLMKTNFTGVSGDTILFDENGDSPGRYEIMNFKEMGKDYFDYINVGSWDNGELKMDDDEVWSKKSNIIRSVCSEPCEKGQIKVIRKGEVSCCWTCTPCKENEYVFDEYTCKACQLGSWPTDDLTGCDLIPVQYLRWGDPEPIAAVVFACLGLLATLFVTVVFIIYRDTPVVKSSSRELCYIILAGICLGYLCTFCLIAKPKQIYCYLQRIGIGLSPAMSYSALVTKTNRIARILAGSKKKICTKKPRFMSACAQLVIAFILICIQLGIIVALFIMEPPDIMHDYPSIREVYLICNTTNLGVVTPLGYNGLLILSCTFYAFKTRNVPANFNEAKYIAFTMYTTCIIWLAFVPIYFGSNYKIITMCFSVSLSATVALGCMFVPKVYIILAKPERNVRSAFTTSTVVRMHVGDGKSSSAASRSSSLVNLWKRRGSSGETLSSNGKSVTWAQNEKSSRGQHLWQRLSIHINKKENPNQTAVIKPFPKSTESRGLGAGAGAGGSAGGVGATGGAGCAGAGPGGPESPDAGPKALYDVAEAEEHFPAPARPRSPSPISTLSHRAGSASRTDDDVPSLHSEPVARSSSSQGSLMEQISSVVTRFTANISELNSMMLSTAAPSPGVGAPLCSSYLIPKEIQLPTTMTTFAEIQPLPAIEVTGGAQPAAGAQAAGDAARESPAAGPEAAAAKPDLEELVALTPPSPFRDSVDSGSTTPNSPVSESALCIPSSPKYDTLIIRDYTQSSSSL

| EC50 [2] | Emax [2] | SMILES | apparent reversal of amphetamine-induced hyperlocomotion [1] |
| --- | --- | --- | --- |
| > 10000 nM | 43% | O=C1NCCc2ncc(OCc3ccccc3)cc21 [compound 15] |  |
| > 30000 nM |  | O=C1c2cc(OCc3ccccc3)cnc2CCN1c1ccccn1 [compound 17] |  |
| > 10000 nM | 67% | O=C1c2cc(OCc3ccccc3)cnc2CCN1c1ccc(F)cc1F [compound 18] |  |
| > 30000 nM |  | O=C1c2cc(OCc3ccccc3)cnc2CCN1c1cccnc1 [compound 19] |  |
| > 30000 nM |  | Cc1cccc(N2CCc3ncc(OCc4ccccc4)cc3C2=O)n1 [compound 20] |  |
| > 10000 nM | 34% | O=C1c2cc(OCc3ccccc3)cnc2CCN1c1ccc(F)cc1 [compound 21] |  |
| 2760 nM | 52% | O=C1c2cc(OCc3ccccc3)cnc2CCN1CC1CCC1 [compound 22] |  |
| 125 nM | 66% | O=C1c2ccc(OCc3ccccc3)nc2CCN1c1ccc(F)cc1 [compound 23] |  |
| 441 nM | 49% | O=C1c2ccc(OCc3ccccc3)nc2CCN1CC1CCC1 [compound 24] |  |
| > 30000 nM | 43% | O=C1NCCc2cc(COc3ccccc3)cnc21 [compound 25] |  |
| > 30000 nM | 21% | CN1CCc2cc(COc3ccccc3)cnc2C1=O [compound 26] |  |
| > 30000 nM | 15% | C[C@H](N1CCc2cc(COc3ccccc3)cnc2C1=O)C(C)(C)C [compound 27] |  |

Continued, compound first:

| SMILES | EC50 [2] | Emax [2] | apparent reversal of amphetamine-induced hyperlocomotion [1] |
| --- | --- | --- | --- |
| O=C1c2ccc(OCc3ccccc3)nc2CCN1c1ccc(F)cc1 [2-(benzyloxy)-6-(4-fluorophenyl)-7,8-dihydro-1,6-naphthyridin-5(6H)-one] |  |  | 35% |
| O=C1NCCc2nc(OCc3cccc(F)c3)ccc21 [compound 1] | 370 nM | 71% |  |
| O=C1c2ccc(OCc3cccc(F)c3)nc2CCN1Cc1cccc(Cl)c1F [compound 2] | 4200 nM | 39% |  |
| COc1ccc(CN2CCc3nc(OCc4cccc(F)c4)ccc3C2=O)cc1C(F)(F)F [compound 3] | > 10000 nM | 40% |  |
| O=C1c2ccc(OCc3cccc(F)c3)nc2CCN1c1cccc(F)c1 [compound 4] | 980 nM | 41% |  |
| O=C1c2ccc(OCc3cccc(F)c3)nc2CCN1c1ccc(F)cn1 [compound 5] | > 10000 nM | 40% |  |
| O=C1c2ccc(COc3cccc(F)c3)nc2CCN1c1ccc(F)cc1 [compound 6] | 200 nM | 72% |  |
| O=C1c2ccc(COc3cccc(F)c3)nc2CCN1c1ccc(F)cn1 [compound 7] | 360 nM | 66% |  |
| O=C1c2ncc(COc3ccccc3)cc2CCN1c1ccc(F)cc1 [compound 8] | 730 nM | 76% |  |
| O=C1NCCc2nc(OCc3cccc(Cl)c3)ccc21 [compound 9] | 190 nM | 55% |  |
| O=C1NCCc2nc(OCc3ccccc3F)ccc21 [compound 10] | 700 nM | 79% |  |
| O=C1c2ccc(OCc3cccc(F)c3)nc2CCN1CC1CCC1 [compound 11] | 630 nM | 39% |  |
| COc1ccc(CN2CCc3ncc(COc4cccc(F)c4)cc3C2=O)cc1 [compound 12] | 1600 nM | 64% |  |
| CN1CCc2ncc(COc3cccc(F)c3)cc2C1=O [compound 13] | > 10000 nM | 44% |  |
| COc1ccc(CN2CCc3ncc(OCc4ccccc4)cc3C2=O)cc1 [compound 14] | > 10000 nM | 46% |  |
